Publication PMC3192245 (Proteins, 2011)

Molecular target: AtOPR3 (Arabidopsis thaliana, UniProt Q9FUP0)
Test: X-ray crystal structure, […] Å
Assay type: binding
Conditions: ternary complex with 8-iso PGA1; one FMN per monomer

Sequence of AtOPR3 (Q9FUP0 whole entry): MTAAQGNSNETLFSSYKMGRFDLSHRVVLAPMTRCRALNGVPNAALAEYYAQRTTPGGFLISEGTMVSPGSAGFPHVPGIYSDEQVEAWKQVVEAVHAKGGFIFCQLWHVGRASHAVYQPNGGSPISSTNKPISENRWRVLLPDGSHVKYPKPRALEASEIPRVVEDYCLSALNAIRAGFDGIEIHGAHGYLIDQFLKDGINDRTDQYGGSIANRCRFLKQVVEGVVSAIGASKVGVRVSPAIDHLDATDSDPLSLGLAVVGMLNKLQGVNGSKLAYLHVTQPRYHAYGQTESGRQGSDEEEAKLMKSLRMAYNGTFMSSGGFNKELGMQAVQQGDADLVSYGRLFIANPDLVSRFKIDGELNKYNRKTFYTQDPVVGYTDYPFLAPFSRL

Cc1cc2nc3c(=O)[nH]c(=O)nc-3n(C[C@H](O)[C@H](O)[C@H](O)COP(=O)(O)O)c2cc1C [FMN]
X-ray crystal structure, 2.6 Å: each AtOPR3 monomer contains one FMN and one 8-iso PGA1 molecule
